PMC8778670, “Identification of an Orally Bioavailable, Brain-Penetrant Compound with Selectivity for the Cannabinoid Type 2 Receptor” (Molecules, 2022)

Biological target: T1, human CB1 receptors (Homo sapiens, UniProt P21554)
T1 construct: expressed in transfected cells; host or cells: CHO cells
Assay: Cannabinoid receptor [3H]CP-55,940 displacement binding assay, CB1
Conditions: 1 h; 10 µM compound; CHO cell membranes, 2.5 nM radioligand; read-out: Displacement of [3H]CP-55,940 from CB1
Experimental: The affinities of the compounds for CB1 and CB2 receptors were examined using displacement assays, as previously described. Briefly, cell membranes from CHO cells expressing human CB1 or human CB2 receptors were isolated using differential centrifugation. Test compounds reconstituted in DMSO and were incubated with the isolated membrane in binding buffer (50 mM Tris-HCl, 1 mM EDTA, 3 mM MgCl2, 5 mg/mL BSA, pH 7.4) along with 2.5 nM [^3H]CP-55,940. Total binding was assessed in the presence of equal concentration of DMSO, while non-specific binding was determined in the presence of 10 μM CP-55,940, and background binding was determined in wells lacking membrane. Following incubation at 30 °C for 60 min, the binding reactions were terminated by vacuum filtration through Whatman GF/C filters. The filters were then washed twice with ice-cold buffer (50 mM Tris-HCl, 1 mg/mL BSA). Liquid scintillation cocktail was added to each well and the total tritiated counts per minute were analyzed using a TopCount scintillation counter. Background counts were subtracted from all wells and the percent displacement from total binding was calculated.
The compounds were initially screened at 10 μM concentrations. If they produced at least ±30% displacement of the radioligand, then full competition curves were constructed. Ki values were calculated using GraphPad Prism (San Diego, CA, USA) and Kd values determined using a 1 site fit. All assays were run in technical and biological replicates so that the n = 5–6.

T1 sequence (P21554 whole entry): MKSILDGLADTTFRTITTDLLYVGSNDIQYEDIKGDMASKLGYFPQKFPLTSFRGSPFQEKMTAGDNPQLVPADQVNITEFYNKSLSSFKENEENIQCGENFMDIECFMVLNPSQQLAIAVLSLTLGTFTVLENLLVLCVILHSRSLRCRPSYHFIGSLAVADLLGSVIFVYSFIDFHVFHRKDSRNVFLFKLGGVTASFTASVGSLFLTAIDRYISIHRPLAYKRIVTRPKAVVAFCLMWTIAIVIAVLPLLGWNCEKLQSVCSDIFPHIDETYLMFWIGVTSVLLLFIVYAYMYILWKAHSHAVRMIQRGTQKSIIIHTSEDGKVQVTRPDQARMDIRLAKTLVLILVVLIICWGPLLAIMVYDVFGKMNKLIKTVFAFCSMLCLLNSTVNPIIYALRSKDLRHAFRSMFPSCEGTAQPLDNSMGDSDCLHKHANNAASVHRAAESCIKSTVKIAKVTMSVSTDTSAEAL

inhibition at 10 µM: 41.3%
Compound: O=C1c2ccc(Cl)cc2N/C(=N/N=C/c2cc3ccccc3s2)[C@@H]2CCCN12 [Compound 4k]
